Test results taken from patent publication US6413782B1, “Methods of manufacturing high-throughput screening systems” (priority 1996, dated 2002).

Biological target: β-galactosidase (Escherichia coli, UniProt P00722)
Assay: Enzyme inhibitor screen in planar chip format (continuous flow, fluorogenic substrate FDG)
Assay type: biochemical
Conditions: IPTG 200 mM in inhibitor well; β-Galactosidase 180 U/ml; substrate FDG 400 μM; 20 mM Tris pH 8.5; versus buffer control
Protocol: The numbers adjacent the channels represent the lengths of each channel in millimeters. Two voltage states were applied to the ports of the chip. […] A control experiment was also run in which buffer was placed into the inhibitor well.
Enzyme: β-Galactosidase (180 U/ml in 50 mM Tris/ 300 μg/ml BSA
Substrate: Fluorescein-digalactoside (FDG) 400 μM
Buffer: 20 mM Tris, pH 8.5
Enzyme and substrate were continually pumped through the main channel from their respective ports under both voltage states. Inhibitor or Buffer were delivered into the main channel alternately from their respective wells by alternating between voltage state 1 and voltage state 2. When no inhibitor was present at the detection end of the main channel, a base line level of fluorescent product was produced. […] FIG. 9B a superposition of the two data segments from FIG. 9A, directly comparing the inhibitor data with control (buffer) data.

Sequence of β-galactosidase (P00722 2-1024): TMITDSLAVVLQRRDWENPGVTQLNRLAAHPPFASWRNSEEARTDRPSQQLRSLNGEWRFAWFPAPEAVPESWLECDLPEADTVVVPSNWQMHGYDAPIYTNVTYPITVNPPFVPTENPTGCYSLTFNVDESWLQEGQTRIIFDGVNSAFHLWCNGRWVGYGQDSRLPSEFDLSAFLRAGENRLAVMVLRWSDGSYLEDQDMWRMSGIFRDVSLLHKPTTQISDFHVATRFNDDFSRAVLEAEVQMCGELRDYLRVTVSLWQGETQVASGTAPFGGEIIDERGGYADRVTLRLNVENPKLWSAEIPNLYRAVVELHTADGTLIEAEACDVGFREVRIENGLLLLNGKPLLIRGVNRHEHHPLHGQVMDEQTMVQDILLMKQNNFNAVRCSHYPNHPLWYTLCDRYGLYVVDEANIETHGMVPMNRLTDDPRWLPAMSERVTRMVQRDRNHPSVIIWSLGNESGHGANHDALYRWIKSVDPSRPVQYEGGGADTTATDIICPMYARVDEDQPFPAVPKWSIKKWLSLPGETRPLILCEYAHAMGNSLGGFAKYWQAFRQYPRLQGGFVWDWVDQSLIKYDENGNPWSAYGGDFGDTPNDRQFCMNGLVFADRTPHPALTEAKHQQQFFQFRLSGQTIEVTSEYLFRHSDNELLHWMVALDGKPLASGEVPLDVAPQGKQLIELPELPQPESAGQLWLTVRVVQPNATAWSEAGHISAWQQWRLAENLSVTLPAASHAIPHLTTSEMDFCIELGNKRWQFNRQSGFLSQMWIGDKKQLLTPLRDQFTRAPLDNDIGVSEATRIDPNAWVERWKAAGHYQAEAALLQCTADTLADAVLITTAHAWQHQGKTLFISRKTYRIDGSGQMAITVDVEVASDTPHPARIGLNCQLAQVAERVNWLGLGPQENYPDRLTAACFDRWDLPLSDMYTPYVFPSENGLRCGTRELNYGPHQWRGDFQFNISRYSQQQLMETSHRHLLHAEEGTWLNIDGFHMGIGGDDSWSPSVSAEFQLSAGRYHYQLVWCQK

## CC(C)S[C@@H]1O[C@H](CO)[C@H](O)[C@H](O)[C@H]1O [IPTG]
  fluorescent signal upon introduction of inhibitor (inhibition of the enzyme/substrate interaction): greatly reduced
